Test results: ChEMBL document CHEMBL5614419, “Discovery of novel BCL6-Targeting PROTACs with effective antitumor activities against DLBCL in vitro and in vivo” (Eur J Med Chem, 2024)
Active and inactive are the calls of the source. The calls are words filed in the database; no cut-off is given here.

How the values were obtained:
[1] = target: T1, Protein cereblon/B-cell lymphoma 6 protein (Homo sapiens, UniProt Q96SW2+P41182); assay: PROTAC activity at CRBN/BCL6 in BCL6-dependent human SU-DHL-4 cells assessed as induction of BCL6 degradation by measuring degradation rate at 1 uM incubated for 48 hrs by Western blot analysis relative to control; type: cell-based
T1 sequence (Q96SW2 whole entry, looked up, other chains not shown): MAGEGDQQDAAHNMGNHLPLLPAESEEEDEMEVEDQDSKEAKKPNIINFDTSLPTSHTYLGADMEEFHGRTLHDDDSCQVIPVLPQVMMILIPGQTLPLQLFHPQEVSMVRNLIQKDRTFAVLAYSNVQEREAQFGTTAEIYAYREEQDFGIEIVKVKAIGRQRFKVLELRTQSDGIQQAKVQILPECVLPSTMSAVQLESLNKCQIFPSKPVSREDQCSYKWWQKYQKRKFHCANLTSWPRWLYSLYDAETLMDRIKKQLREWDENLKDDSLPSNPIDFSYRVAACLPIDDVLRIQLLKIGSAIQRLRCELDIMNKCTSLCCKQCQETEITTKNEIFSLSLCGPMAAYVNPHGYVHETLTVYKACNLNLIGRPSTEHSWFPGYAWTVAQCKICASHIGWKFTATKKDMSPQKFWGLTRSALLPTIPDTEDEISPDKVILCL

[2] = target: T1, Protein cereblon/B-cell lymphoma 6 protein; assay: PROTAC activity at CRBN/BCL6 in BCL6-dependent human SU-DHL-4 cells assessed as induction of BCL6 degradation by measuring degradation rate at 10 uM incubated for 48 hrs by Western blot analysis relative to control; type: cell-based
[3] = tested on: SUD4; assay: Upregulation of p21 protein level in human SU-DHL-4 cells at 5 uM preincubated for 48 hrs followed by compound elution and measured after 72 hrs by Western blot analysis; type: functional, cell-based
[4] = tested on: SUD4; assay: Upregulation of p27 protein level in human SU-DHL-4 cells at 5 uM preincubated for 48 hrs followed by compound elution and measured after 72 hrs by Western blot analysis; type: functional, cell-based
[5] = target: B-cell lymphoma 6 protein (Homo sapiens, UniProt P41182); assay: Binding affinity to fluorescent labeled recombinant BCL-6 BTB domain (unknown origin) assessed as dissociation constant incubated for 10 mins by MST analysis
[6] = tested on: SUD4; assay: Antiproliferative activity against BCL6-dependent human SU-DHL-4 cells assessed as inhibition of cell growth at 1 uM measured after 6 days by MTT assay relative to control; type: functional; settings: SU-DHL-4, 144 h, time 6 day
[7] = tested on: SUD4; assay: Antiproliferative activity against BCL6-dependent human SU-DHL-4 cells assessed as inhibition of cell growth at 10 uM measured after 6 days by MTT assay relative to control; type: functional; settings: SU-DHL-4, 144 h, time 6 day
[8] = tested on: DOHH-2; assay: Antiproliferative activity against BCL6-dependent human DOHH-2 cells assessed as inhibition in cell growth measured after 6 days by MTS assay; settings: DOHH-2, 144 h
[9] = tested on: SUD4; assay: Antiproliferative activity against BCL6-dependent human SU-DHL-4 cells assessed as inhibition in cell growth measured after 6 days by MTT assay; settings: SU-DHL-4, 144 h
[10] = tested on: SU-DHL-6; assay: Antiproliferative activity against BCL6-dependent human SU-DHL-6 cells assessed as inhibition in cell growth measured after 6 days by MTT assay; settings: SU-DHL-6, 144 h
[11] = tested on: OCI-Ly1; assay: Antiproliferative activity against BCL6-dependent human OCI-Ly1 cells assessed as inhibition in cell growth measured after 6 days by MTT assay; settings: OCI-Ly1, 144 h
[12] = Cytotoxicity against HEK293T cells assessed as inhibition in cell growth measured after 6 days by MTT assay; type: toxicity, cell-based, HEK-293T; settings: human, HEK293T cells
[13] = Cytotoxicity against human WI-38 VA13 cells assessed as inhibition in cell growth measured after 6 days by MTT assay; type: toxicity, cell-based; settings: WI-38 VA13 cells
[14] = target: T1, Protein cereblon/B-cell lymphoma 6 protein; assay: PROTAC activity at CRBN/BCL6 in human SU-DHL-4 cells assessed as induction of BCL6 degradation incubated for 48 hrs by Western blot analysis; type: cell-based
[15] = target: T1, Protein cereblon/B-cell lymphoma 6 protein; assay: PROTAC activity at CRBN/BCL6 in human SU-DHL-4 cells assessed as induction of BCL6 degradation by measuring maximal efficacy incubated for 48 hrs by Western blot analysis relative to control; type: cell-based
[16] = target: T1, Protein cereblon/B-cell lymphoma 6 protein; assay: PROTAC activity at CRBN/BCL6 in human DOHH-2 cells assessed as induction of BCL6 degradation incubated for 48 hrs by Western blot analysis; type: cell-based
[17] = target: T1, Protein cereblon/B-cell lymphoma 6 protein; assay: PROTAC activity at CRBN/BCL6 in human DOHH-2 cells assessed as induction of BCL6 degradation by measuring maximal efficacy incubated for 48 hrs by Western blot analysis relative to control; type: cell-based

Row | SMILES | Activity [1] [%] | Activity [2] [%] | also measured
1 | COc1cc(Nc2nc(N3CCN(C(=O)CCOCCNc4ccc5c(c4)C(=O)C(C4CCC(=O)NC4=O)C5=O)CC3)ncc2F)ccc1NC(=O)c1ccc(C2=CCCC2)s1 (configuration not stated) | 36.6 | 34 | 
2 | COc1cc(Nc2nc(N3CCN(CCOCCOc4cccc5c4C(=O)C(C4CCC(=O)NC4=O)C5=O)CC3)ncc2F)ccc1NC(=O)c1ccc(C2=CCCC2)s1 (configuration not stated) | 13.5 | 26.3 | 
3 | COc1cc(Nc2nc(N3C[C@@H](C)N[C@@H](C)C3)ncc2F)ccc1NC(=O)c1ccc(C2=CCCC2)s1 |  |  | Activity [3]: inactive; Activity [4]: inactive
4 | COc1cc(Nc2nc(N3CCN(CCCCCCNc4cccc5c4C(=O)N(C4CCC(=O)NC4=O)C5=O)CC3)ncc2F)ccc1NC(=O)c1ccc(C2=CCCC2)s1 (configuration not stated) | 42.9 | 55.8 | 
5 | CC[C@H](C)[C@H](NC(=O)[C@H](CO)NC(=O)[C@H](CCCNC(=N)N)NC(=O)CNC(=O)[C@H](C)NC(=O)[C@H](CCC(=O)O)NC(=O)[C@H](CCCCN)NC(=O)[C@@H](NC(=O)[C@@H](NC(=O)[C@H](C)NC(=O)[C@@H](NC(=O)[C@@H](N)CC(C)C)C(C)C)[C@@H](C)O)C(C)C)C(=O)N[C@@H](Cc1cnc[nH]1)C(=O)N[C@@H](CCC(=O)O)C(=O)N[C@H](C(=O)N1CCC[C@H]1C(=O)N[C@@H](CCCNC(=N)N)C(=O)O)[C@@H](C)CC |  |  | Kd [5]: 30 µM
6 | COc1cc(Nc2nc(N3CCN(C(=O)CCCCCNc4cccc5c4C(=O)N(C4CCC(=O)NC4=O)C5=O)CC3)ncc2F)ccc1NC(=O)c1ccc(C2=CCCC2)s1 (configuration not stated) | 38 | 54.1 | inhibition at 1 µM [6]: 31%; inhibition at 10 µM [7]: 41.3%
7 | COc1cc(Nc2nc(N3CCN(C(=O)CCOCCNc4cc5c(cc4F)C(=O)C(C4CCC(=O)NC4=O)C5=O)CC3)ncc2F)ccc1NC(=O)c1ccc(C2=CCCC2)s1 (configuration not stated) | 0 | 0 | 
8 | COc1cc(Nc2nc(N3CCN(CCOCCNc4cccc5c4C(=O)N(C4CCC(=O)N(C)C4=O)C5=O)CC3)ncc2F)ccc1NC(=O)c1ccc(C2=CCCC2)s1 (configuration not stated) | 11.9 | 20.7 | IC50 [8]: > 10 µM; IC50 [9]: > 10 µM; IC50 [10]: > 10 µM; IC50 [11]: > 10 µM; IC50 at 6 days [12]: > 10 µM; IC50 at 6 days [13]: > 10 µM; DC50 [14]: > 10 µM; Emax [15]: 29.4%; DC50 [16]: > 10 µM; Emax [17]: 11.6%
9 | COc1cc(Nc2nc(N3CCN(CCOCCOCCNc4cccc5c4C(=O)N(C4CCC(=O)NC4=O)C5=O)CC3)ncc2F)ccc1NC(=O)c1ccc(C2=CCCC2)s1 (configuration not stated) | 35.6 | 38.3 | 
10 | COc1cc(Nc2nc(N3CCN(C(=O)CCOCCNc4cccc5c4C(=O)N(C4CCC(=O)NC4=O)C5=O)CC3)ncc2F)ccc1NC(=O)c1ccc(C2=CCCC2)s1 (configuration not stated) | 55.7 | 46.3 | inhibition at 1 µM [6]: 47%; inhibition at 10 µM [7]: 72.9%
11 | COc1cc(Nc2nc(N3CCN(C(=O)CCC4CCN(c5cccc6c5C(=O)N(C5CCC(=O)NC5=O)C6=O)CC4)CC3)ncc2F)ccc1NC(=O)c1ccc(C2=CCCC2)s1 (configuration not stated) | 23.1 | 24.1 | 
12 | COc1cc(Nc2nc(N3CCN(C(=O)CCOCCOCCOCCNc4cccc5c4C(=O)N(C4CCC(=O)NC4=O)C5=O)CC3)ncc2F)ccc1NC(=O)c1ccc(C2=CCCC2)s1 (configuration not stated) | 34.7 | 41.2 | 

Continued, in another order:

Row | Activity [1] [%] | Activity [2] [%] | SMILES | also measured
13 | 40.6 | 36.3 | COc1cc(Nc2nc(N3CCN(CCCCNc4cccc5c4C(=O)N(C4CCC(=O)NC4=O)C5=O)CC3)ncc2F)ccc1NC(=O)c1ccc(C2=CCCC2)s1 (configuration not stated) | 
14 | 11.1 | 37 | COc1cc(Nc2nc(N3CCN(C(=O)CCOCCNc4cccc5c4CC(C4CCC(=O)NC4=O)C5=O)CC3)ncc2F)ccc1NC(=O)c1ccc(C2=CCCC2)s1 (configuration not stated) | 
15 | 0.1 | 31.7 | COc1cc(Nc2nc(N3CCN(C(=O)CCCCNc4cccc5c4C(=O)N(C4CCC(=O)NC4=O)C5=O)CC3)ncc2F)ccc1NC(=O)c1ccc(C2=CCCC2)s1 (configuration not stated) | 
16 | 27.4 | 73.2 | COc1cc(Nc2nc(N3CCN(C(=O)CCOCC#Cc4cccc5c4CN(C4CCC(=O)NC4=O)C5=O)CC3)ncc2F)ccc1NC(=O)c1ccc(C2=CCCC2)s1 (configuration not stated) | inhibition at 1 µM [6]: 5.7%; inhibition at 10 µM [7]: 98%
17 | 22.7 | 1.4 | COc1cc(Nc2nc(N3CCN(C(=O)CCCCCCNc4cccc5c4C(=O)N(C4CCC(=O)NC4=O)C5=O)CC3)ncc2F)ccc1NC(=O)c1ccc(C2=CCCC2)s1 (configuration not stated) | 
18 | 5.2 | 21.6 | COc1cc(Nc2nc(N3CCN(CCOCCNc4ccc5c(c4)C(=O)C(C4CCC(=O)NC4=O)C5=O)CC3)ncc2F)ccc1NC(=O)c1ccc(C2=CCCC2)s1 (configuration not stated) | 
19 | 15.7 | 37.1 | COc1cc(Nc2nc(N3CCN(CCOCCNc4cccc5c4CC(C4CCC(=O)NC4=O)C5=O)CC3)ncc2F)ccc1NC(=O)c1ccc(C2=CCCC2)s1 (configuration not stated) | 
20 | 58.4 | 64 | COc1cc(Nc2nc(N3CCN(CCCCCNc4cccc5c4C(=O)N(C4CCC(=O)NC4=O)C5=O)CC3)ncc2F)ccc1NC(=O)c1ccc(C2=CCCC2)s1 (configuration not stated) | inhibition at 1 µM [6]: 58.7%; inhibition at 10 µM [7]: 70.1%
21 | 7.1 | 2.7 | COc1cc(Nc2nc(N3CCN(C(=O)CC4CCN(c5cccc6c5C(=O)N(C5CCC(=O)NC5=O)C6=O)CC4)CC3)ncc2F)ccc1NC(=O)c1ccc(C2=CCCC2)s1 (configuration not stated) | 
22 | 12.2 |  | COc1cc(Nc2nc(N3CCN(C(=O)CCOCCOCCOCCOCCNc4cccc5c4C(=O)N(C4CCC(=O)NC4=O)C5=O)CC3)ncc2F)ccc1NC(=O)c1ccc(C2=CCCC2)s1 (configuration not stated) | 
23 | 28.2 | 48.1 | COc1cc(Nc2nc(N3CCN(C(=O)CCOCCOCCNc4cccc5c4C(=O)N(C4CCC(=O)NC4=O)C5=O)CC3)ncc2F)ccc1NC(=O)c1ccc(C2=CCCC2)s1 (configuration not stated) | 
